{
  "source": "paper PMC9116478",
  "about": "“Population Pharmacokinetics of Caspofungin and Dose Simulations in Heart Transplant Recipients” (Antimicrobial Agents and Chemotherapy, 2022)",
  "key": {"[1]": {"conditions": "under normal plasma protein levels; cited from earlier work", "text": "Kurland et al. ([26]) found a negative correlation between hypoalbuminemia and elimination rate constant. […] They also identified total bilirubin (TBIL) as another covariate. ALB and TBIL levels were collectively found to affect CL of caspofungin."}, "[2]": {"assay": "Population pharmacokinetics of caspofungin in HTx and non-HTx patients (plasma LC-MS/MS, NONMEM two-compartment model)", "format": "in vivo, human (patients)", "conditions": "for clearance / Cmax: human, iv; for Cmax: read-out: Cmax (peak plasma concentration)", "text": "This was a prospective, single-center, open-label study. We recruited patients who underwent HTx at the Guangdong Provincial People’s Hospital in the SICU from July 2019 to July 2021. The inclusion criteria were: (i) patients aged 18 years or older who received caspofungin in SICU and accepted cardiac surgery and (ii) acceptability of multiple blood sampling. Patients who were allergic to caspofungin, those receiving drugs that can affect the PK of caspofungin, and those who could not receive multiple blood sampling were excluded. Patients who underwent HTx in SICU were recruited as the HTx group. Patients who never received HTx but underwent cardiac surgery and being in SICU were recruited in the control group. This study was approved by the Ethics Committee of Guangdong Provincial People’s Hospital, Guangdong Academy of Medical Sciences (approval number GDREC2018355(R1)H).\nCaspofungin (Laboratoires Merck Sharp & Dohme Chibret, France) was administered by 1-h intravenous infusion at a dose of 50 mg every 24 h after a loading dose of 70 mg. Blood samples were collected before administration and at 1, 2, 6, 10, 16, and 24 h after the administration of caspofungin for at least 3 days. Plasma was separated by centrifugation of blood samples at 2,000 × g for 10 min at 4°C and stored at −80°C before analysis.\nAll plasma samples were detected by the liquid chromatography-tandem mass spectrometry (LC-MS/MS) method. First, 200 μL of acetonitrile-dissolved extraction working solution was added to 100 μL of plasma sample and mixed by vortexing at 3,000 rpm for 1 min. After centrifugation at 14,000 rpm for 15 min at 4°C, 2 μL supernatant was injected for LC-MS/MS analysis. The chromatographic column was an Agilent poroshell 120 SB-C18 (2.7 μm, 3.0 × 50 mm) column. The mobile phase was acetonitrile with 0.1% formic acid (A) and water with 0.1% formic acid (B). In the initial 0 to 0.5 min, the mobile phase was composed of 95% B and 5% A, and then within 0.5 to 1.5 min, the mobile phase B decreased linearly from 95% to 5% and remained unchanged for 1.5 to 2 min. Finally, it returned to 95% B and 5% A, and the entire analysis time was 5 min. The flow rate was 0.5 mL/min, and the column temperature was 35°C. A positive ion mode multiple reaction monitoring detection mode through electrospray ionization was performed with the transitions of m/z 547.3 → 538.2 for caspofungin and m/z 549.3 → 540.3 for caspofungin-d4 (IS). The linear range of the method was 0.4 to 25 mg/liter. The intraday and interday precision were 1.56 to 3.32% and 3.40 to 7.48%, respectively, and the deviation of accuracy was 0.96 to 2.21%.\nWe analyzed population PK data using the nonlinear mixed-effects modeling software NONMEM 7.3 (version 7.3, ICON plc, NY, USA). We employed one-, two-, and three-compartment pharmacokinetic models to fit the data and selected the most suitable basic structural model. Further, all potential covariates for caspofungin PK parameters reported in previous studies were analyzed. The covariates included demographic characteristics, renal function indices, liver function indices, HTx status, ECMO, and CRRT. Different covariate types have different variable models. Discrete covariates (such as sex) were modeled as follows. (1) Cij=Ctv,j×θjcov×enj\nFor continuous covariates (such as weight), an exponential model was selected with average covariates values and an adjusting factor. (2) Cij=Ctv,j×(cov/covave)^θj×e^ηj\nIn the above equations, Cij is the individual value. Ctv,j is the population typical value. cov in equation 1 is expressed as 0 or 1, cov in equation 2 is the value of the covariate, and θj is an impact factor. covave is the average value of a continuous covariate. Interindividual variability is shown as ηj, which is normally distributed with mean 0 and variance ω^2. Residual variability was modeled using a mixture of additive and proportional error models. […]"}, "Candida albicans": {"system": "Candida albicans", "conditions": "pharmacodynamic target used for PTA; cited from earlier work", "text": "(§1) This study used Matlab software for simulations. The simulated data were based on the virtual patients with different ALB levels (25, 30, 37, 45, and 50 g/liter) at various dosage regimens (50-, 70-, 100-, 150-, and 200-mg maintenance dose). The median ALB level of the research population was 37 g/liter. We generated 1,000 virtual patients whose pharmacokinetic parameters were randomly assigned according to the distributions with the median of CL, θALB-CL, and CL interindividual variations and their calculated standard deviations from bootstraps (Table 2) for the simulations. AUC was calculate ..."}, "Candida parapsilosis": {"system": "Candida parapsilosis", "conditions": "pharmacodynamic target used for PTA; cited from earlier work", "text": "as §1"}, "Candida glabrata": {"system": "Candida glabrata", "conditions": "pharmacodynamic target used for PTA; cited from earlier work", "text": "as §1"}, "[3]": {"conditions": "Control group (n = 31), median (range)"}, "[4]": {"conditions": "Heart transplantation group (n = 27), median (range)"}, "[5]": {"conditions": "population estimate, 58 patients, 414 plasma concentrations, 50 mg q24h i.v. after 70 mg loading dose, two-compartment model"}},
  "note": "Where two headings read alike, the source gives them in different places.",
  "data": [
    {"smiles": "CC[C@H](C)C[C@H](C)CCCCCCCCC(=O)N[C@H]1C[C@@H](O)[C@@H](NCCN)NC(=O)[C@@H]2[C@@H](O)CCN2C(=O)[C@H]([C@H](O)CCN)NC(=O)[C@H]([C@H](O)[C@@H](O)c2ccc(O)cc2)NC(=O)[C@@H]2C[C@@H](O)CN2C(=O)[C@H]([C@@H](C)O)NC1=O", "note": "[caspofungin]", "values": [
      {"measurement": "protein binding rate", "setting": "[1]", "value": 97, "unit": "%"},
      {"measurement": "Vc", "setting": "[2]; [3]", "value": 5.27, "unit": "L"},
      {"measurement": "Vp", "setting": "[2]; [3]", "value": 6.31, "unit": "L"},
      {"measurement": "Vc", "setting": "[2]; [4]", "value": 3.14, "unit": "L"},
      {"measurement": "Vp", "setting": "[2]; [4]", "value": 4.98, "unit": "L"},
      {"measurement": "Q", "setting": "[2]; control group, median", "value": 2.85, "unit": "L/h"},
      {"measurement": "clearance", "setting": "[2]; population estimate, 58 patients (27 HTx, 31 non-HTx), 414 plasma concentrations, 50 mg q24h 1-h i.v. infusion after 70 mg loading dose, LC-MS/MS, two-compartment model, read-out: CL (clearance), final model estimate (converted)", "value": 6.42, "unit": "mL/min"},
      {"measurement": "clearance", "setting": "[2]; plasma, 50 mg, Control group (n = 31), median (range), read-out: CL (converted)", "value": 7.5, "unit": "mL/min"},
      {"measurement": "Cmax", "setting": "[2]; plasma, 50 mg, Control group, non-HTx critically ill patients (n = 31), median (range), 50 mg q24h 1-h i.v. infusion after 70 mg loading dose", "value": 7890, "unit": "ng/mL"},
      {"measurement": "Cmax", "setting": "[2]; plasma, 50 mg, Heart transplantation group (n = 27), median (range), 50 mg q24h 1-h i.v. infusion after 70 mg loading dose", "value": 11700, "unit": "ng/mL"},
      {"measurement": "clearance", "setting": "[2]; plasma, 50 mg, Heart transplantation group (n = 27), median (range), read-out: CL (converted)", "value": 5.83, "unit": "mL/min"},
      {"measurement": "Q (intercompartmental clearance), final model estimate", "setting": "[2]; [5]", "value": 2.85, "unit": "L/h"},
      {"measurement": "Vc (volume of distribution of the central compartment), final model estimate", "setting": "[2]; [5]", "value": 4.27, "unit": "L"},
      {"measurement": "Vp (volume of distribution of the peripheral compartment), final model estimate", "setting": "[2]; [5]", "value": 6.01, "unit": "L"},
      {"measurement": "target AUC/MIC value", "setting": "Candida albicans", "value": "greater than 865"},
      {"measurement": "target AUC/MIC value", "setting": "Candida parapsilosis", "value": "> 1,185"},
      {"measurement": "target AUC/MIC value", "setting": "Candida glabrata", "value": "> 450"}
    ]}
  ]
}
